Measurements: US20260231848A1, “A METHOD OF TREATING SEEDS AND SEEDS PRODUCED THEREBY” (RESEARCH FOUNDATION OF THE CITY UNIVERSITY OF NEW YORK, priority 2023, published 2026)

What was measured:
[1] = Dissolution of the compounds for the stock solution; format: physicochemical; conditions: stock solution of 100 mM; visible observation
Description: In order to select the optimum concentration of NOSH and NOSH-ASA, a concentration gradient was performed. To achieve the gradient, a stock solution of 100 mM was prepared. […] Therefore, it was decided to prepare a stock solution using 100% DMSO and then dilute the composition to 0.1% DMSO.

[2] = tested on: tomato seeds (4 different varieties); experiment: Tomato seed priming under salt stress conditions; format: in vivo; conditions: for fruit yield per plant: 50 μM in 0.1% DMSO, seeds soaked 12 hours, vs untreated, hydroprimed, solvent-treated seeds
Description: A experiment has been carried out, whereby the effect of NOSH-A pre-treatment of tomato seeds was examined under salt stress conditions. The treatments were as follows: • Untreated tomato seeds (4 different varieties—CV1-4) • Hydroprimed seeds (soaked in dH2O) • NOSH-A control treated seeds (soaked in 0.1% DMSO) • NOSH-A primed seeds NOSH-A was initially prepared in a stock solution of 50 mM using DMSO. The working solution was made by diluting the stock in water to reach a final concentration of 50 μM in 0.1% DMSO. Seed priming was performed by soaking the seeds in NOSH-A solution for 12 hours at 25° C. Then the seeds were placed in gauze under the laminar flow for air-drying, till reaching their initial weight. The seeds were sown in plastic seedling trays (1 seed per pot) filled with sterile soil, covered with a transparent film, and let to germinate in a growth chamber room under certain conditions of 24/20° C. day/night temperatures, 60-70% RH, with a photosynthetic photon flux density of 120 μmol m^2 s^−1 and a 16/8-h photoperiod. At day 7 after sowing, seedlings were transplanted into square plastic pots filled with sterilized pot soil, transferred into a glasshouse, and let to grow until day 24. Growing plants were watered three times per week. Plants were then watered with saline solution (7.8-12.0 dS/m), while controls were watered with dH2O, until fruiting. A total of four harvests were carried out, with yield data being the total of the four harvesting events. All analyses were carried out using six independent plants per treatment.

[3] = tested on: baby spinach cultivars (Sunangel RZ, Scarne F1PV-1656); experiment: Baby spinach seed priming, growth under heat stress; format: in vivo; conditions: day 37-40° C., 50 μM seed priming 12 hours
Description: NOSH-A was initially prepared in a stock solution of 50 mM using DMSO. The working solution was made by diluting the stock in water to reach a final concentration of 50 μM in 0.1% DMSO. Seed priming was performed by soaking the seeds of two baby spinach cultivars (Sunangel RZ, Scarne F1PV-1656) in NOSH-A solution for 12 hours at 25° C. Then the seeds were placed in gauze under the laminar flow for air-drying, till reaching their initial weight. Seeds were sown in the soil in a commercial greenhouse (FIG. 6a), and let to grow until day 30. Average day temperature ranged between 37-40° C., while night temperature ranged between 21-23° C. Growing plants were watered three times per week. All agronomic analyses were carried out using a minimum of nine independent plants per treatment, while survival percentage was calculated from a total of 300 plants per treatment.

[4] = tested on: Arabidopsis thaliana seeds (ecotype Col-0); experiment: Seed treatment at pre-germination stage, plant growth (rosette fresh weight, projected rosette area); format: in vivo; conditions: for concentration resulting in highest increase in fresh weight: screening at concentration gradient 0-100 μM, rosettes 22 DAS, seeds soaked 12 hrs
Description: Stock solutions of NOSH or NOSH-ASA were each prepared by initial dissolution in 100% DMSO. From each stock solution, treatment compositions at a 0-100 μM concentration gradient (diluted in 0.1% v/v DMSO) were prepared. Arabidopsis thaliana seeds (ecotype Col-0) were treated at their pre-germination stage with different concentrations of NOSH or NOSH-aspirin solutions (0-100 μM concentration gradient) by soaking the seeds in Petri dishes at room temperature and in the dark. After 12 hrs, the seeds were air dried for 2-3 hrs. Four seeds per pot were sown in soil medium and stratified at 4° C. for 4 days to achieve germination uniformity. Then the pots were transferred to the growth room and allowed to grow under controlled conditions of 22° C., and a 16-hr day (100-120 μmol m^−2 s^−1)/8-hr night regime for 22 days (d). Nine Days After Stratification (DAS), one seedling, which had the projected rosette area closest to the median area of the treatment, was selected from the four seedlings sown per pot. Four independent experiments were carried out using a minimum of 6-8 independent plants as replicates per experiment. Projected Rosette Area (PRA) was determined by taking pictures of the rosettes 22 days after stratification (DAS). The pictures were subsequently analyzed using ImageJ software (http://rsb.info.nih.gov/ij/) to measure the size of each plant. Represented rosette sizes were calculated by taking the average of the individual plant per repeat and then per treatment. The same rosettes were used also for fresh weight measurements. In this connection it is noted that in preliminary experiments no substantial differences between the ratio of fresh weight and the ratio of dry weight under optimum soil water content was observed. Statistical analysis was performed with SAS (Version 9.4 of the SAS System for windows 7 64 bit by using the mixed model analysis. Copyright C 2002-2012 SAS Institute Inc. Cary, NC, USA (www.sas.com). Seeds were treated by seed soaking for 12 hr with NOSH at 50 μM. Four seeds were then sown in soil medium within a pot and allowed to grow for 22 days under the conditions described above.

[5] = tested on: plants from treated seeds; experiment: Stress protection: seed priming by vacuum infiltration, plants left un-watered (drought); format: in vivo
Description: Seeds were treated with a NOSH composition comprising 30% methanol and the priming application method was vacuum infiltration (90 sec). […] Plants were growth on optimum condition until 37 days and then were left un-watered for 7 days. Observation on plant phenotype was performed and interesting differences on the plant appearance were recorded. […] This supported the conclusion that NOSH compounds enhance plant tolerance, (probably, however, without being bound to this hypothesis, by avoiding the accumulation of stress-related pigments such as anthocyanin).

[6] = tested on: Arabidopsis thaliana seeds (ecotype Col-0); experiment: Leaf 3 area and epidermal cell analysis of plants from treated seeds; format: in vivo; conditions: 50 μM at seed level, carrier 0.1% DMSO
Description: For the leaf area analysis, 3rd true leaves were harvested from all the replicates and then the leaves were cleared in 100% ethanol, mounted in lactic acid on microscope slides, and photographed. Leaf areas were measured with the ImageJ software (http://rsb.info.nih.gov//ij/). Abaxial epidermal cells were drawn with a DMLB microscope (Leica) fitted with a drawing tube and a differential interference contrast objective. Drawings were scanned and analyzed using automated image analysis algorithms (Andriankaja et al. 2012). Subsequently, drawings were used to measure average cell size, from which the total pavement cell number was calculated. The stomatal index was defined as the percentage of stomata in relation to the number of epidermal cells. Statistical analysis was performed with SAS (Version 9.4 of the SAS System for windows 7 64 bit by using the mixed model analysis. Copyright C 2002-2012 SAS Institute Inc. Cary, NC, USA (www.sas.com). Finally, the ratio of leaf 3 area, pavement cell area, pavement cell number and stomata index measured on plants treated at seed level with 50 μM NOSH compared with plants received from carrier-treated seeds (seeds treated with 0.1% DMSO) were determined, the results of which is provided in FIG. 4 (values are averages of three biological repeats, with each repeat consisting of 6-8 plants).

[7] = control and high salinity conditions, 50 μM seed priming

Row | SMILES | dissolution directly in 0.1% DMSO [1] | fruit dry weight [2, 7] | fruit fresh weight [2, 7] | fruit yield per plant ([2]; control conditions) | fruit yield per plant ([2]; high salinity conditions (7.8-12.0 dS/m)) | average leaf area [3] | total plant leaf area [3] | survival percentage of plants ([3]; vs untreated, hydroprimed, solvent-treated seeds) | concentration resulting in highest increase in fresh weight [4] [µM] | seed germination after soaking ([5]; NOSH composition comprising 30% methanol, soaking 4 h, 12 h and 24 h, attributed to high percentage of methanol) | plant phenotype / tolerance after drought ([5]; composition with 30% methanol, vacuum infiltration 90 sec, un-watered 7 days after 37 days, vs carrier-treated drought plants) | growth of the leaves ([4]; 50 μM, seeds soaked 12 hr, 22 DAS, vs no NOSH treatment) | fresh weight of rosettes, ratio to carrier-treated seeds ([4]; 50 μM, seeds soaked 12 hr, 22 days, p value 0.0001) | projected rosette area (PRA) ratio, treated seeds vs carrier-treated seeds ([4]; seeds exposed before germination, carrier 0.1% DMSO) [fold] | promoting growth following treatment at the seed level ([4]; treatment of seeds before germination) | leaf 3 area, ratio to carrier-treated seeds [6] | pavement cell area, ratio to carrier-treated seeds [6] | pavement cell number, ratio to carrier-treated seeds [6] | stomata index, ratio to carrier-treated seeds [6]
1 | O=C(CCCO[N+](=O)[O-])Oc1ccccc1C(=O)Oc1ccc(-c2cc(=S)ss2)cc1 [NOSH-ASA] | did not completely dissolve | significant improvements | significant improvements | significant improvement | significant improvement | significant improvements | significant improvements | clear improvement | 10 |  |  |  |  |  |  |  |  |  | 
2 | O=C(CCCO[N+](=O)[O-])Oc1ccc(-c2cc(=S)ss2)cc1 [NOSH] | did not completely dissolve |  |  |  |  |  |  |  | 50 | no seed germination | greener and with less anthocyanin on the leaves | increased growth of the leaves | statistically significant (p values indicated in the Figures) increase | > 1.5 | more effective in promoting growth as compared to NOSH-NSAID | statistically significant (p values indicated in the Figures) increase | statistically significant (p values indicated in the Figures) increase | statistically significant (p values indicated in the Figures) increase | statistically significant (p values indicated in the Figures) increase
